The text below walks through data of ChEMBL document CHEMBL1201862, “PubChem BioAssay data set” (2004).

Test systems include 786-0; A498; ACHN; CCRF-CEM; EKVX; HCC 2998; HL-60; HOP-62; LOX IMVI; MDA-MB-231; MDA-N; NCI-H460; PC-3; RXF 393; SF-268; SK-MEL-28; SNB-19; SNB-75; SR; NCI-H522.
Assay in all cases: NCI-60 cell line screen, 48 h

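Results reflect a 48-hour exposure of cells in 96-well plates to compound at five concentrations. Abbreviation: GI50, concentration required for 50% inhibition of growth.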 Active and inactive are the calls of the source. Rule as the data show it: active = GI50 up to about 1.1 µM and inactive = higher. Bounds are passed on as bounds.

For `C#CCn1c(=O)ccn(/C(=C\C(=O)OCC)C(=O)OCC)c1=O`, the GI50 with 786-0 is 2.3 µM (inactive); in the experiment on A498, 17.1 µM (inactive); with ACHN, 1.64 µM (inactive); in the experiment with CCRF-CEM it was 0.381 µM (active); in the experiment on EKVX it was 6.28 µM (inactive); with HCC 2998, 19.9 µM (inactive). Further, the GI50 in the experiment on HL-60 was 2.93 µM (inactive); in the experiment on HOP-62, 23.5 µM (inactive); with LOX IMVI, 12.2 µM (inactive); in the experiment with MDA-MB-231, 18.1 µM (inactive); with MDA-N, 15.8 µM (inactive); in the experiment on NCI-H460 it was 2.63 µM (inactive). Moreover, the GI50 in the experiment on PC-3 is 15 µM (inactive); with RXF 393, 2.08 µM (inactive); in the experiment on SF-268, 19.9 µM (inactive); with SK-MEL-28 it was 11.7 µM (inactive); with SNB-19 it was 19.9 µM (inactive); in the experiment with SNB-75 it was 20 µM (inactive). Also, the GI50 in the experiment with SR was 5.02 µM (inactive).

In the case of `O=C(N/N=C/c1ccccc1O)c1ccccc1Nc1ccccc1C(=O)N/N=C/c1ccccc1O`, the GI50 is 0.214 µM (active) with 786-0; > 100 µM (inactive) in the experiment with A498; 0.394 µM (active) with ACHN; 0.931 µM (active) with CCRF-CEM; 0.398 µM (active) in the experiment with EKVX; > 100 µM (inactive) in the experiment with HCC 2998. Besides, the GI50 with HL-60 is 1.69 µM (inactive); with HOP-62 it was 0.432 µM (active); in the experiment with LOX IMVI, 0.154 µM (active); in the experiment with MDA-MB-231, 99.3 µM (inactive); in the experiment on MDA-N it was > 100 µM (inactive); in the experiment on NCI-H460 it was 0.371 µM (active). Besides, the GI50 is 0.277 µM (active) in the experiment on NCI-H522; 13.4 µM (inactive) in the experiment with PC-3; 0.255 µM (active) with SF-268; 0.182 µM (active) with SK-MEL-28; 3.41 µM (inactive) in the experiment with SNB-19; 3.09 µM (inactive) in the experiment on SNB-75. In addition, the GI50 in the experiment with SR was 0.566 µM (active).

For the molecule `NC(CC1=CCC=CC1)C(=O)O` (stereo not given), the GI50 in the experiment with 786-0 is > 100 µM (inactive); in the experiment with A498 it was > 100 µM (inactive); in the experiment on ACHN, > 100 µM (inactive); in the experiment on CCRF-CEM it was 62.8 µM (inactive); in the experiment on EKVX, > 100 µM (inactive); in the experiment on HCC 2998 it was > 100 µM (inactive). The GI50 in the experiment with HOP-62 was > 100 µM (inactive); in the experiment on LOX IMVI it was 91.8 µM (inactive); with MDA-MB-231 it was > 100 µM (inactive); in the experiment with MDA-N, 59.2 µM (inactive); with NCI-H460, 59.3 µM (inactive); in the experiment on PC-3 it was 45.7 µM (inactive). Moreover, the GI50 with RXF 393 was 70.5 µM (inactive); in the experiment with SF-268, > 100 µM (inactive); with SK-MEL-28, 80.5 µM (inactive); in the experiment on SNB-19 it was > 100 µM (inactive); in the experiment with SNB-75, 99.5 µM (inactive); in the experiment with SR it was > 10 µM (inactive).

As for `Oc1ccccc1/C=N/Nc1nnc2c3ccccc3c3ccccc3c2n1`, the GI50 in the experiment on 786-0, in the experiment on A498, with ACHN, in the experiment on CCRF-CEM, in the experiment on EKVX and in the experiment with HL-60 was > 100 µM (inactive) each time. Moreover, the GI50 was 42.6 µM (inactive) with HOP-62; 84.3 µM (inactive) with LOX IMVI; > 100 µM (inactive) with MDA-MB-231; 29.9 µM (inactive) in the experiment with MDA-N; 41.8 µM (inactive) in the experiment with NCI-H460; 20 µM (inactive) in the experiment on NCI-H522. Further, the GI50 in the experiment on PC-3 is 80.5 µM (inactive); in the experiment on RXF 393, 25.1 µM (inactive); in the experiment with SF-268, > 100 µM (inactive); with SK-MEL-28 it was > 100 µM (inactive); in the experiment with SNB-19, > 100 µM (inactive); in the experiment with SNB-75, 20.8 µM (inactive). Further, the GI50 with SR was 52.6 µM (inactive).
